# In patent US12358904B2, “Inhibitors of TYK2” (Atomwise Inc., priority 2023, dated 2025):
# Assays:
# TYK2-JH2 = molecular target: T1, TYK2-JH2 (Homo sapiens, UniProt P29597); experiment: TYK2-JH2 HTRF binding assay (ligand efficiency); details: calculated from IC50 of the TYK-JH2 binding assay (Equation 1)
# T1 construct: TYK JH2 enzyme mix (ChemPartnec CP20210818A-BV); purchased ChemPartner CP20210818A-BV
# Method in brief: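 His-tagged TYK2 JH2 (0.5 nM) preincubated 10 min at RT with compound (0.1–0.000005 μM) in 20 mM HEPES pH 7.5, 10 mM MgCl2, 0.01% Triton X-100, 1 mM DTT; then 35 nM tracer plus anti-6HIS Tb cryptate, 60 min RT. TR-FRET read (Ex340/Em495/520); IC50 converted to ligand efficiency.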
# IL-12/pSTAT4 = experiment: IL-12 induced pSTAT4 assay in NK-92 cells; format: cell-based; details: Homo sapiens, NK92, IL-12 stimulation, read-out: Cellular potency (IL-12/pSTAT4)
# Method in brief: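 Overnight-starved NK-92 cells (20K/well) pre-incubated with compounds (1000 to 0.05 nM final) 30 min at 37 °C, then stimulated with IL-12 (10 ng/ml) for 30 min at 37 °C. Lysates assayed for pSTAT4 (Tyr693) by MSD electrochemiluminescence.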
# IL-6/pSTAT3 = experiment: IL-6 induced pSTAT3 assay in TF-1 cells; format: cell-based; details: Homo sapiens, read-out: Cellular selectivity (IL-6/pSTAT3)
# Description: The following example describes the IL-6 induced pSTAT3 assay used to determine the cellular selectivity (IL-6/pSTAT3) of the TYK2 inhibitors.
# TF-1 (ATCC®, CRL-2003™) cells were cultured in RPMI 1640 Medium, with GlutaMAX™ Supplement, HEPES for Cell Culture (Life Technologies, 72400047), 10% Fetal Bovine Serum (Life Technologies, 26400044), 2 ng/mL human recombinant GM-CSF (Life Technologies, PHC2013), 1 mM Sodium pyruvate (Life Technologies, 11360039), 1% MEM NEAA (Life Technologies, 11140-035), 1% Penicillin/Streptomycin (Life Technologies, 15140-122).
# TF-1 (70×10^6) cells were starved overnight in T01 50 flasks (Opti-MEM™ I Reduced Serum Medium, no phenol red (Life Technologies, 11058-021), 1 mM Na pyruvate (Life Technologies, 11360039), 1% MEM NEAA (Life Technologies, 11140-035), and 1% Penicillin/Streptomycin (Life Technologies, 15140-122)) then seeded into 96-well TPP plates (150 000 cell/well) and incubated with test compounds (Final Concentration [nM] 10000-0.05) for 30 minutes at 37° C. […] Stimulation was terminated by addition of lysis buffer (MSD K150SVD) and pSTAT3 detection was measured with Phospho-STAT3 (Tyr705) Kit MSD K150SVD)) according to manufacturer's instruction. Briefly, cell lysates were added to pre-blocked plates, sealed, and shake for 1 hour at room temperature. Plates were then washed and incubated with detection antibody for 1 hour at room temperature. After washing, Read Buffer was added, and plates were read on MSD instrument (Model 1300 MSD Quickplex SQ 120).
# GM-CSF/pSTAT5 = experiment: GM-CSF induced pSTAT5 assay in CellSensor irf1-bla TF-1 cells; format: cell-based; details: GM-CSF 1 ng/mL; for IC50: Homo sapiens, read-out: Cellular selectivity (GM-CSF induced pSTAT5)
# Description: The CellSensor irf1-bla TF-1 cell line (LifeTechnologies, K1657) was cultured in RPMI 1640 Medium (Invitrogen 72400-047), 10% Fetal Bovine Serum (Invitrogen, 26400044), 1 mM Sodium pyruvate (Life Technologies, 11360039), 1% MEM NEAA (Life Technologies, 11140-035), 2 ng/ml of human recombinant GM-CSF (Fisher, PHC2015), 1% Penicillin/Streptomycin (Life Technologies, 15140-122) and 5 μg/ml of Blasticidin (ThermoFisher, A1113903).
# The cell line was seeded in a T75 flask at 13×10^6 cells/50 mL in starvation medium (Opti-MEM™ I Reduced Serum Medium, no phenol red (Life Technologies, 11058-021), 1 mM Na pyruvate (Life Technologies, 11360039), 1% MEM NEAA (Life Technologies, 11140-035), and 1% Penicillin/Streptomycin (Life Technologies, 15140-122)) for 16 hours at 37° C. under 5% CO2 the day before the assay.
# For the assay, CellSensor irf1-bla TF-1 cells were seeded at 30 000 cells/32 μL (starvation medium)/well in a 384-well plate.
# Compounds were added on the cells in 4 μL (starvation medium)/well at 10× the final concentration. They were incubated for 30 minutes at 37° C.
# Human recombinant carrier-free GM-CSF (ThermoFisher, ref PHC2015) was added to the wells in 4 μL (starvation medium)/well at 10×. The final concentration was 1 ng/mL. Control wells without GM-CSF treatment were added. Plates were incubated for 5 hours at 37° C.
# 6× LiveBlazer-FRET substrate (Invitrogen, K1085) was added to the wells at 8 μL/well. The substrate was prepared shortly before use by mixing 6 μL of solution A and 60 μL of solution B to 934 μL of solution C. Plates were incubated for 2.5 hours at room temperature in the dark. The plates were read on an Envision (Perkin Elmer) with an excitation at a wavelength of 409 nm and two wavelengths for the emission 520 nm and 450 nm. The ratio between the […] emission was used to calculate the IC50s.
# The IC50 for the inhibition of pSTAT5 was calculated with the Xlfit software using the 4 Parameter Logistic Model or Sigmoidal Dose-Response Model (model 205).
# T1 sequence (P29597 589-875 limits assumed): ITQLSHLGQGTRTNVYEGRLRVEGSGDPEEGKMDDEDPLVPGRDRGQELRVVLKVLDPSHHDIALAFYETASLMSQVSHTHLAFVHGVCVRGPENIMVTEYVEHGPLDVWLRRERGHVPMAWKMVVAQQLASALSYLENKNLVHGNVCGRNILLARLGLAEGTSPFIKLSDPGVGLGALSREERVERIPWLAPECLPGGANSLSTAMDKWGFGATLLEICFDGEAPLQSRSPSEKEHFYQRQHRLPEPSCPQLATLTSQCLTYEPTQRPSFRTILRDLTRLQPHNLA
SMILES,Ligand Efficiency (TYK2-JH2),IC50 (IL-12/pSTAT4) [nM],IC50 (IL-6/pSTAT3) [µM],Cellular selectivity (GM-CSF induced pSTAT5) (GM-CSF/pSTAT5),IC50 (GM-CSF/pSTAT5) [µM]
"C[C@H](c1ccc(Nc2cc(Nc3ncccc3S(C)(=O)=O)ncn2)nc1)N1CC2(COC2)C1 [Compound 17, I—N^4-(5-(1-(2-oxa-6-azaspiro[3.3]heptan-6-yl)ethyl) 73yridine-2-yl)-N^6-(3-(methylsulfonyl)73yridine-2-yl)pyrimidine-4,6-diamine]",†† (††: 0.37-0.39),< 100,> 10,††††,–
"CS(=O)(=O)c1cccnc1Nc1cc(Nc2cccc(C(F)(F)F)n2)ncn1 [Compound 19, N^4-(3-(methylsulfonyl)100yridine-2-yl)-N^6-(6-(trifluoromethyl) 100yridine-2-yl)pyrimidine-4,6-diamine]",††† (†††: >0.39),< 100,> 10,–,> 10
"CC1(Nc2ccc(Nc3cc(Nc4ncccc4S(C)(=O)=O)ncn3)nc2)COC1 [Compound 21, N^4-(5-((3-methyloxetan-3-yl)amino)102yridine-2-yl)-N^6-(3-(methylsulfonyl)102yridine-2-yl)pyrimidine-4,6-diamine]",††† (†††: >0.39),< 100,4 to 10,–,> 10
"CC(c1ccc(Nc2cc(Nc3ncccc3S(C)(=O)=O)ncn2)nc1)N1CC(F)C1 (stereo not shown) [Compound 22, N^4-(5-(1-(3-fluoroazetidin-1-yl)ethyl)102yridine-2-yl)-N^6-(3-(methylsulfonyl)102yridine-2-yl)pyrimidine-4,6-diamine]",††† (†††: >0.39),< 100,4 to 10,–,> 10
"Cc1cc(Nc2cc(Nc3ncccc3S(C)(=O)=O)ncn2)ncc1NC1(C)COC1 [Compound 23, N^4-(4-methyl-5-((3-methyloxetan-3-yl)amino)103yridine-2-yl)-N^6-(3-(methylsulfonyl)103yridine-2-yl)pyrimidine-4,6-diamine]",††† (†††: >0.39),< 100,> 10,–,> 10
"CC(NC1CCOC1)c1ccc(Nc2cc(Nc3ccccc3S(C)(=O)=O)ncn2)nc1 (stereo not shown) [Compound 26, N^4-(2-(methylsulfonyl)phenyl)-N^6-(5-(1-(tetrahydrofuran-3-ylamino)ethyl)106yridine-2-yl)pyrimidine-4,6-diamine]",†† (††: 0.37-0.39),< 100,> 10,–,> 10
"CS(=O)(=O)c1ccccc1Nc1cc(Nc2ccc3c(n2)CCCC3N2CC3(CCOCC3)C2)ncn1 (stereo not shown) [Compound 27, N^4-(5-(7-oxa-2-azaspiro[3.5]nonan-2-yl)-5,6,7,8-tetrahydroquinolin-2-yl)-N^6-(2-(methylsulfonyl)phenyl)pyrimidine-4,6-diamine]",† (†: <0.37),< 100,> 10,–,> 10
"CS(=O)(=O)c1ccccc1Nc1cc(Nc2ccc(CNC3CCOC3)cn2)ncn1 (stereo not shown) [Compound 28, N^4-(2-(methylsulfonyl)phenyl)-N^6-(5-((tetrahydrofuran-3-ylamino)methyl)110yridine-2-yl)pyrimidine-4,6-diamine]",†† (††: 0.37-0.39),< 100,> 10,–,> 10
"CC(NC1CC(F)(F)C1)c1ccc(Nc2cc(Nc3ncccc3S(C)(=O)=O)ncn2)nc1 (stereo not shown) [Compound 35, N^4-(5-(1-(3,3-difluorocyclobutylamino)ethyl)122yridine-2-yl)-N^6-(3-(methylsulfonyl)122yridine-2-yl)pyrimidine-4,6-diamine]",††† (†††: >0.39),< 100,> 10,–,> 10
"CC(C)(NC1COC1)c1ccc(Nc2cc(Nc3ccccc3S(C)(=O)=O)ncn2)nc1 [Compound 39, N^4-(2-(methylsulfonyl)phenyl)-N^6-(5-(2-(oxetan-3-ylamino)propan-2-yl)127yridine-2-yl)pyrimidine-4,6-diamine]",†† (††: 0.37-0.39),< 100,> 10,–,> 10
"Cc1ccnc(Nc2cc(Nc3ccccc3S(C)(=O)=O)ncn2)c1 [Compound 44, N^4-(4-methylpyridin-2-yl)-N^6-(2-(methylsulfonyl)phenyl) pyrimidine-4,6-diamine]",††† (†††: >0.39),< 100,> 10,–,> 10
"Cc1ccnc(Nc2cc(Nc3ccccc3C(N)=O)ncn2)c1 [Compound 45, 2-((6-((4-methylpyridin-2-yl)amino)pyrimidin-4-yl)amino) benzamide]",††† (†††: >0.39),< 100,< 4,–,< 4
Cc1cccc(Nc2cc(Nc3ccccc3C(N)=O)ncn2)n1 [Compound 46],††† (†††: >0.39),< 100,< 4,–,< 4
"Cc1cnnc(Nc2cc(Nc3ccccc3C(N)=O)ncn2)c1 [Compound 47, 2-((6-((5-methylpyridazin-3-yl)amino)pyrimidin-4-yl)amino) benzamide]",††† (†††: >0.39),< 100,< 4,–,> 10
"Cc1cncc(Nc2cc(Nc3ccccc3C(N)=O)ncn2)n1 [Compound 49, 2-(6-(6-methylpyrazin-2-ylamino)pyrimidin-4-ylamino)benzamide]",††† (†††: >0.39),100 to 1000,< 4,–,> 10
"Cc1cccc(Nc2cc(Nc3ccccc3NS(C)(=O)=O)ncn2)n1 [Compound 53, N-(2-(6-(6-methylpyridin-2-ylamino)pyrimidin-4-ylamino)phenyl) methanesulfonamide]",††† (†††: >0.39),100 to 1000,< 4,–,4 to 10
